Assay: Solubility of the compound in solvents
Type: physicochemical
Settings: at 5° C.

SMILES: [O-][S+](CC(F)(F)F)c1cc(OCCCCCSC(F)(F)F)c(F)cc1Cl (stereo not shown) [B-a, 5-trifluoromethylthiopentyl-[4-chloro-2-fluoro-5-(2,2,2-trifluoroethylsulfinyl)phenyl]ether]
- solubility in a mixed solution of 70 wt. % t-butanol/water: about 2 wt. %

Source: patent US12552744B2, “Method for producing monosulfoxide derivative” (KUMIAI CHEMICAL INDUSTRY CO., LTD., priority 2020, dated 2026)
